Format in all cases: in vitro ADME
In one data set the target is T1, BCRP (Homo sapiens, UniProt Q9UNQ0).
T1 construct: host or cells: MDCK (BCRP-MDCK)
T1 sequence (Q9UNQ0 1-655): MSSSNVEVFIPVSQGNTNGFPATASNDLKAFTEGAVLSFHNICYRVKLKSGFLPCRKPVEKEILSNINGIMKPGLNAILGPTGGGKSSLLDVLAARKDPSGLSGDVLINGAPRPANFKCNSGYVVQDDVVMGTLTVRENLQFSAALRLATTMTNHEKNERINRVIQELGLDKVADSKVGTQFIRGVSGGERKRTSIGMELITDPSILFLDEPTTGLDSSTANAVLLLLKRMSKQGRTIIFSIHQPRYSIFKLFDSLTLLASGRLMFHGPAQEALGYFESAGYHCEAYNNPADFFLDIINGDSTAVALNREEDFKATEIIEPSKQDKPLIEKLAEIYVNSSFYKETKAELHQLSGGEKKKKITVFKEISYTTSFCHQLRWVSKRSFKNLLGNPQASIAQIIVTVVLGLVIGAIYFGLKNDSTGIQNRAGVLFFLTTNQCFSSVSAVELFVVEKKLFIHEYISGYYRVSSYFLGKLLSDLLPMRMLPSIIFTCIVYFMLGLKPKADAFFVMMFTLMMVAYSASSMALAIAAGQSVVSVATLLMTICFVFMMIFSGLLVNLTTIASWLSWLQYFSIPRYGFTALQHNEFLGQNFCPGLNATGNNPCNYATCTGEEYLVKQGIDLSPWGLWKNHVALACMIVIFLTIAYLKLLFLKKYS
Put plainly: Inhibition of BCRP-mediated efflux transport in BCRP-MDCK cells. The procedure:
A preincubation with EBO or known inhibitor was performed on both sides to preload the cells. After 30 min, the preincubation solution was aspirated. Aliquots of fresh dosing solution with or without EBO or known inhibitor (0.55 mL for AP-to-BL, 1.55 mL for BL-to-AP) were added to the donor compartment, and HBSSg_7.4 with or without EBO or known inhibitor (1.5 mL for AP-to-BL, 0.5 mL for BL-to-AP) were added to the receiver compartment. Receiver samples (200 µL) and donor samples (50 µL) were taken at preselected time points.
Cell monolayer integrity was examined using lucifer yellow (excitation 450 nm and emission 538 nm). The concentrations of the probe substrate in the donor and receiver samples, as well as EBO in dosing solutions, were determined by LC-MS/MS.

The subject of another data set is CYP1A2. Put plainly: CYP inhibition (direct and metabolism-dependent) in human hepatic microsomes. Conditions: for MDI IC50 Fold Change: metabolism-dependent inhibition; for IC50: pH 7.4, EBO 0.03–100 μM, M3 1–1000 µM, read-out: as an Inhibitor IC50. The procedure:
(§1) The direct inhibitory potential of EBO on cytochrome P450 activities O-deethylase (CYP1A2), bupropion hydroxylase (CYP2B6), amodiaquine N-deethylase (CYP2C8), diclofenac 4′-hydroxylase (CYP2C9), S-mephenytoin 4′-hydroxylase (CYP2C19), bufuralol 1′-hydroxylase (CYP2D6), chlorzoxazone 6-hydroxylase (CYP2E1), testosterone 6β-hydroxylase (CYP3A), and midazolam 1′-hydroxylase (CYP3A) was assessed in vitro using human hepatic microsomes according to Covance Laboratory (Madison, WI, USA) SOP. A single substrate concentration was used, approximating the concentration of substrate that gives half the maximum reaction velocity (Km) for human hepatic microsomes for each cytochrome P450 activity. […] All sample and control incubations were performed in triplicate and were analyzed by LC-MS/MS. Incubation mixtures contained microsomal protein and substrate in a 0.1 M potassium phosphate buffer (pH 7.4) containing 1 mM EDTA (assay buffer). […] Incubations were terminated by the addition of 100 µL of an internal standard solution followed by vortex mixing. Protein was removed by centrifugation at 1500× g for 5 min at 4 °C, and supernatants were transferred to a separate plate and stored at 4 °C prior to LC-MS/MS analysis. The analyte for each activity assay was quantitated by comparison to a linear curve of an authentic standard prepared using human microsomal protein. […] Incubations were performed at substrate concentrations approximating the average Km values. […] For determination of control activities, NADPH was added after the addition of each substrate. Samples were then processed as previously described. […] Two sets of duplicate incubations were prepared (cofactor preincubation [50 µL] and control preincubation [50 µL]) with each concentration of M3. All incubations contained a final microsomal protein concentration of 0.1 mg/mL. In this study, M3 and microsomes were preincubated with cofactor for 20 min prior to initiation of reaction by addition of probe substrate. The corresponding control incubations were designed to provide a preincubation without cofactor while incorporating the 20 min preincubation of M3 with microsomes to ensure consistent equilibration of M3 in both control and cofactor preincubations. The control preincubations were therefore performed for 20 min with M3, microsomes, and probe substrate, and the reaction was initiated by the addition of a cofactor solution. […] Incubations without cofactor (at the highest concentration of M3) were performed to determine any cofactor-independent substrate metabolism formation. Probe substrate concentrations were determined by LC/MS/MS methods.

Another data set addresses T2, CYP2D6 (Homo sapiens, UniProt P10635).
T2 construct: Characterized, pooled, human hepatic microsomes from 15 individuals; tissue CellzDirect (Durham, NC, USA) or XenoTech LLC (Lenexa, KS, USA); host or cells: pooled human liver microsomes (15 donors)
The data set is described as above. Conditions: for MDI IC50 Fold Change: metabolism-dependent inhibition; for IC50: read-out: as an Inhibitor IC50. How it is done:
as §1

A further data set relates to CYP3A4/5. Described as above. As to conditions: for MDI IC50 Fold Change: metabolism-dependent inhibition; for IC50: read-out: as an Inhibitor IC50. How it is done:
as §1

The next data set deals with CYP3A4. The data set is described as above. As to conditions: for MDI IC50 Fold Change / IC50: CYP3A4 (Testosterone); for MDI IC50 Fold Change: metabolism-dependent inhibition; for IC50: human, read-out: as an Inhibitor IC50. The procedure:
as §1

In a further data set the target is T3, CYP2C9 (Homo sapiens, UniProt P11712).
T3 construct: tissue CellzDirect; XenoTech LLC; host or cells: pooled human liver microsomes
The description is as above. As to conditions: for MDI IC50 Fold Change: metabolism-dependent inhibition; for IC50: read-out: as an Inhibitor IC50. How it is done: as §1

Read-outs that look alike come from different tables or passages of the source.

T2 sequence (P10635 whole entry): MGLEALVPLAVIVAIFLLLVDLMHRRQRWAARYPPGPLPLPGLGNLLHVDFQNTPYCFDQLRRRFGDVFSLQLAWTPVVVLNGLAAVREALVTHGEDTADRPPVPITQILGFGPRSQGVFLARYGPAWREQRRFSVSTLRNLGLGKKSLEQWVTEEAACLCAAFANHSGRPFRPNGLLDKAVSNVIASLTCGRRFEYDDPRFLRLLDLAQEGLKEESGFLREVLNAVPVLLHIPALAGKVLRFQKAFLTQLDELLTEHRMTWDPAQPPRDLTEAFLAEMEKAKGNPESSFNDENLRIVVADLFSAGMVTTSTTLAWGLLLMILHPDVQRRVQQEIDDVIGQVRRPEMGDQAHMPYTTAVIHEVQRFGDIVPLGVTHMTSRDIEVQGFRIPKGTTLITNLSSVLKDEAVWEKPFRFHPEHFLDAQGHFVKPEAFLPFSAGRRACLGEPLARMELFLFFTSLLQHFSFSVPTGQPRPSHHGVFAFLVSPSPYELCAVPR
T3 sequence (P11712 whole entry): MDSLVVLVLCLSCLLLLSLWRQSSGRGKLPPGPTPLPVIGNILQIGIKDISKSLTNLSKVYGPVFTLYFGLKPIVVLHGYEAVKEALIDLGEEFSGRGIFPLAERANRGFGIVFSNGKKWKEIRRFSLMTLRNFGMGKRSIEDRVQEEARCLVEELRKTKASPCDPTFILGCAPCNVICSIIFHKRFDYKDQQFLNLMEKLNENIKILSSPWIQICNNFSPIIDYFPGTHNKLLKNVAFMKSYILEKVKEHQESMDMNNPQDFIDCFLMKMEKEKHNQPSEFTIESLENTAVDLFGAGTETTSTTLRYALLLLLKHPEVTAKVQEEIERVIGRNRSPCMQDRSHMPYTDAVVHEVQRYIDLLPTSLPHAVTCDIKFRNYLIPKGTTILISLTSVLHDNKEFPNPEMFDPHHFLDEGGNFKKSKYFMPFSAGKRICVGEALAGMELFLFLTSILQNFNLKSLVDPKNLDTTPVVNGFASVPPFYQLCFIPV

`NC[C@H]1OB(O)c2c(OCCC(=O)O)cccc21` [M3] gave an inhibition at 500 µM against BCRP (human, BCRP-MDCK cells, pH 7.4, at 500 μM) of 44%. In addition, the half-maximal inhibitory concentration (IC50) on BCRP (read-out: as an Inhibitor, IC50) is > 500 µM; in the data set with CYP1A2 (human, microsomes, CYP1A2) it was > 1000 µM; at CYP2D6, > 1000 µM; in the data set with CYP3A4/5 (CYP3A4/5 (Atorvastatin)), > 1000 µM; with CYP3A4/5 (human, microsomes, pH 7.4, CYP3A4/5 (Midazolam)), > 1000 µM; with CYP3A4 (microsomes, pH 7.4), > 1000 µM. Moreover, on CYP2C9, the IC50 was > 1000 µM. In addition, the “Direct or time-dependent inhibitory activity (in words)” value in the data set on CYP1A2 (CYP1A2), at CYP2D6, in the data set with CYP3A4 (CYP3A4) and on CYP2C9 was “No direct or time-dependent inhibitory activity” in each case. In addition, the “MDI IC50 Fold Change” value with CYP1A2 (CYP1A2), at CYP2D6, in the data set on CYP3A4/5 (CYP3A4/5 (Atorvastatin)), in the data set with CYP3A4/5 (CYP3A4/5 (Midazolam)), in the data set with CYP3A4 and at CYP2C9 was “No” each time.

In turn, `NC[C@H]1OB(O)c2c(OCCCO)cccc21` [EBO, Epetraborole] gave an inhibition at 300 µM on BCRP (human, BCRP-MDCK cells, pH 7.4, at 300 μM) of 13%. The same compound showed an inhibition at 1000 µM against BCRP (human, BCRP-MDCK cells, pH 7.4, at 1000 µM) of 27%. In addition, the “MDI IC50 Fold Change” value in the data set with CYP1A2 (CYP1A2), at CYP2D6, in the data set on CYP3A4/5 (CYP3A4/5 (Midazolam)), with CYP3A4 and on CYP2C9 was “No” each time. In the data set with CYP1A2 (human, human hepatic microsomes, pH 7.4, highest concentration tested (100 µM), read-out: Decrease of CYP1A2 activity (inhibition)), the inhibition at 100 µM is ~30%. The concentration for half-maximal inhibition (IC50) was > 100 µM in the data set with CYP1A2 (human, human liver microsomes, CYP1A2); > 100 µM on CYP2D6; > 100 µM in the data set on CYP3A4/5 (human, human hepatic (liver) microsomes, pH 7.4, probe midazolam (1′-hydroxylation), CYP3A4/5 (Midazolam)); > 100 µM in the data set on CYP3A4 (human hepatic (liver) microsomes, pH 7.4, probe testosterone (6β-hydroxylation)); > 100 µM on CYP2C9. Also, the “Percentage of CYP1A2 activity remaining” value in the data set with CYP1A2 (preincubation with EBO in the absence of NADPH) is 72.4%; in the data set on CYP1A2 (preincubation with EBO in the presence of NADPH) it was 81.7%.

The values above are taken from article PMC10818931, “In Vitro Evaluation of Drug–Drug Interaction Potential of Epetraborole, a Novel Bacterial Leucyl-tRNA Synthetase Inhibitor” (Pharmaceuticals, 2024).
